{
  "source": "paper PMC11189555",
  "about": "“Aryl amino acetamides prevent Plasmodium falciparum ring development via targeting the lipid-transfer protein PfSTART1” (Nature Communications, 2024)",
  "origin": "cited, not measured here",
  "test_system": "P. falciparum merozoites",
  "parameters": "method as in earlier work",
  "conditions": "live cell imaging; ref 11 (Dans et al 2020); cited from earlier work",
  "note": "“Also recorded” adds a separate entry of the source.",
  "data": [
    {"compound": "Cc1cc(Cl)c(S(=O)(=O)N2CCCC2)cc1OCC(=O)NC1CCCCC1", "note": "[M-833]", "values": [
      {"measurement": "effect on merozoite invasion and ring differentiation", "result": "invasion itself was slowed down but not reduced; also recorded: failed to differentiate into an amoeboid ring-stage parasite"}
    ]}
  ]
}
